# Experimental data as given in US11427604B2 (Mindset Pharma Inc., priority 2020, dated 2022).
# Where two headings read alike, the source gives them in different places.
# Experiments:
# [1] = Human liver microsomes stability with NADPH
# Protocol: (§1) The objective of this study was to estimate in vitro metabolic stability of 1-45 in pooled human and male mouse liver microsomes. The concentrations of exemplary compounds in reaction systems were evaluated by LC-MS/MS for estimating the stability in pooled human and male mouse liver microsomes. The in vitro intrinsic clearances of test compounds were determined as well.
# (§2) A master solution in the “Incubation Plate” containing phosphate buffer, ultra-pure H2O, MgCl2 solution and liver microsomes was made according to Table --. The mixture was pre-warmed at 37° C. water bath for 5 minutes.
# (§3) 40 μL of 10 mM NADPH solution was added to each well. The final concentration of NADPH was 1 mM. The negative control samples were prepared by replacing NADPH with 40 μL of ultra-pure H2O. Samples were prepared in duplicate. Negative controls were prepared in singlet.
# (§4) The reaction was started with the addition of 4 μL of 200 μM test compounds or control compounds to each master solution to get the final concentration of 2 μM. This study was performed in duplicate.
# (§5) Aliquots of 50 μL were taken from the reaction solution at 0, 15, 30, 45 and 60 minutes. The reaction solutions were stopped by the addition of 4 volumes of cold methanol with IS (100 nM alprazolam, 200 nM imipramine, 200 nM labetalol and 2 μM ketoprofen). Samples were centrifuged at 3,220 g for 40 minutes. Aliquot of 90 μL of the supernatant was mixed with 90 μL of ultra-pure H2O and then was used for LC-MS/MS analysis.
# (§6) LC/MS analysis was performed for all samples from this study using a Shimadzu liquid chromatograph separation system equipped with degasser DGU-20A5R; solvent delivery unit LC-30AD; system controller SIL-30AC; column oven CTO-30A; CTC Analytics HTC PAL System. Mass spectrometric analysis was performed using an Triple Quad™ 5500 instrument.
# (§7) All calculations were carried out using Microsoft Excel. Peak area ratios of test compound to internal standard (listed in the below table) were determined from extracted ion chromatograms.
# (§8) All calculations were carried out using Microsoft Excel. Peak areas were determined from extracted ion chromatograms. The slope value, k, was determined by linear regression of the natural logarithm of the remaining percentage of the parent drug vs. incubation time curve.
# (§9) Conversion of the in vitro t1/2 (min) into the in vitro intrinsic clearance (in vitro CLint, in μL/min/mg proteins) was done using the following equation (mean of duplicate determinations):
# (§10) [formula] […] Results & Discussion
# [2] = In vivo pharmacokinetics in male C57BL/6 mice; parameters: species or system mouse; conditions: for AUC(0-t): read-out: AUC0-tlast; for half-life: read-out: Apparent t1/2 (converted); for MRT inf: read-out: MRT0-inf
# Protocol: Male C57BL/6 mice (25-30 g) and male Sprague-Dawley rats (250-325 g) from Charles River Labs were acclimatized for a minimum of 5 days prior to dosing. Body weights were recorded on the day of dosing.
# Animals dosed p.o. were deprived of food overnight and fed ˜2 h following dosing.
# Formulations were administered intravenously (i.v.) via the tail vein or orally (p.o.) by gavage with disposable feeding needles.
# Serial blood samples were collected via tail snip. Terminal blood samples were collected under isoflurane anesthesia by cardiac puncture.
# All blood samples were transferred into K2EDTA tubes on wet ice and centrifuged within 5 min (3200×g for 5 min at 4° C.) to obtain plasma. Plasma was stored at −80° C. until analysis.
# Mouse or rat plasma, as applicable.
# AB Sciex QTRAP 4000 or 6500 MS/MS system equipped with an LC system with a binary pump, a solvent degasser, a thermostated column compartment and a multiplate autosampler. i. Analysis software: Phoenix® WinNonlin® 8.2 (Pharsight, Certara, Mountainview, Calif.) ii. Analysis methods: non-compartmental analysis, linear up/log down trapezoidal rule iii. PK parameters: C0, t1/2, AUC0-tlast, AUC0-∞, CL, VSS, MRT, tmax(po), Cmax(po), F, as appropriate
# [3] = Mouse liver microsomes stability with NADPH
# Protocol: as §1, §2, §3, §4, §5, §6, §7, §8, §9, §10
# [4] = mouse, plasma, iv, i.v. 1 mg/kg
# [5] = mouse, plasma, po, p.o. 10 mg/kg
smiles,measurement,setting,value
"[2H]C([2H])([2H])N(C([2H])([2H])[2H])C([2H])([2H])C([2H])([2H])c1c[nH]c2cccc(O)c12 [Compound I-45, 3-(2-(bis(methyl-d3)amino)ethyl-1,1,2,2-d4)-1H-indol-4-ol]",Remaining Percentage (%) after 60 min,"[1]; Human, with NADPH, 2 μM",73.65%
same,half-life at 2 μM,"[1]; human, microsomes",2.27 h
same,microsomal CLint at 2 μM,"[1]; human, microsomes",10.2 µL/min/mg
same,AUC0-inf/Dose,[2]; i.v. 1 mg/kg,181 ± 30.8 kg·ng·h/mL/mg
same,AUC(0-inf),[2]; [4],181 ± 30.8 ng·h/mL
same,clearance,[2]; [4],94 mL/min/kg
same,AUC(0-t),[2]; [4],178 ± 32.2 ng·h/mL
same,half-life,[2]; [4],5.32 ± 2.99 h
same,MRT inf,[2]; [4],1.49 ± 0.536 h
same,Vd,"[2]; mouse, plasma, iv, i.v. 1 mg/kg, read-out: Vss",8.34 ± 3.15 L/kg
same,AUC(0-inf),[2]; [5],795 ± 121 ng·h/mL
same,Cmax,[2]; [5],704 ± 128 ng/mL
same,bioavailability,[2]; [5],44 ± 6.7%
same,AUC(0-t),[2]; [5],792 ± 120 ng·h/mL
same,half-life,[2]; [5],4.52 ± 0.481 h
same,MRT inf,[2]; [5],2 ± 0.227 h
same,AUC0-inf/Dose,[2]; p.o. 10 mg/kg,79.5 ± 12.1 kg·ng·h/mL/mg
same,Cmax/Dose,[2]; p.o. 10 mg/kg,70.4 ± 12.8 kg·ng/mL/mg
same,Remaining Percentage (%) after 60 min,"[3]; Mouse, with NADPH, 2 μM",64.91%
same,half-life at 2 μM,"[3]; male, mouse, microsomes",1.6 h
same,microsomal CLint at 2 μM,"[3]; male, mouse, microsomes",14.4 µL/min/mg
